Data from patent publication US9833497B2, “Human originated EGF domain proteins and use of the same” (CHENGDU SOURCEBIO LIMITED-LIABILITY COMPANY, priority 2013, dated 2017).

Assays:
Format in all cases: cell-based
E. coli DH5α = experiment: Antibacterial activity: MIC and growth curve against E. coli DH5α in 96-well plate; conditions: minimal inhibitory concentration against E. coli DH5α; 96-well plate, 5×10^5 CFU/mL, 37° C., judged after 8 h
Outline: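 MIC taken as lowest protein level with no bacterial growth, tracked by A600 every 30 min during 37 °C, 175 rpm culture. Two-fold protein series 50-12.5 μg/mL final, triplicate wells, against 5×10^5 CFU/mL of LB-washed mid-log cells.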

E. coli BL21 = experiment: MIC against Gram-negative bacteria: E. coli BL21; conditions: 5×10^5 CFU/mL
Outline: (§1)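 Read-out is absence of bacterial growth, with MIC set at the lowest recombinant protein concentration achieving it. Bacteria, pre-grown in LB to McFarland 0.5 and resuspended, were exposed at 5×10^5 CFU/mL to two-fold diluted human EGF domain proteins in triplicate at 37° C, 175 rpm.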

Pseudomonas aeruginosa = experiment: MIC against Gram-negative bacteria: Pseudomonas aeruginosa; conditions: 5×10^5 CFU/mL
Outline: as §1

Klebsiella pneumonia = experiment: MIC against Gram-negative bacteria: Klebsiella pneumonia; conditions: 5×10^5 CFU/mL
Outline: as §1

Enterobacter cloacae = experiment: MIC against Gram-negative bacteria: Enterobacter cloacae; conditions: 5×10^5 CFU/mL
Outline: as §1

Aeromonas hydrophila = experiment: MIC against Gram-negative bacteria: Aeromonas hydrophila; conditions: 5×10^5 CFU/mL
Outline: as §1

Citrobacter diversus = experiment: MIC against Gram-negative bacteria: Citrobacter diversus; conditions: 5×10^5 CFU/mL
Outline: as §1

Moraxella catarrhalis = experiment: MIC against Gram-negative bacteria: Moraxella catarrhalis; conditions: 5×10^5 CFU/mL
Outline: as §1

Proteus mirabilis = experiment: MIC against Gram-negative bacteria: Proteus mirabilis; conditions: 5×10^5 CFU/mL
Outline: as §1

Proteus vulgaris = experiment: MIC against Gram-negative bacteria: Proteus vulgaris; conditions: 5×10^5 CFU/mL
Outline: as §1

Serratia marcescens = experiment: MIC against Gram-negative bacteria: Serratia marcescens; conditions: 5×10^5 CFU/mL
Outline: as §1

[1] = E. coli BL21, 10 h cultivation at 37° C.
[2] = P. aeruginosa, 10 h cultivation at 37° C.
[3] = K. pneumonia, 10 h cultivation at 37° C.
[4] = E. cloacae, 10 h cultivation at 37° C.
[5] = A. hydrophila, 10 h cultivation at 37° C.
[6] = C. diversus, 10 h cultivation at 37° C.
[7] = M. catarrhalis, 10 h cultivation at 37° C.
[8] = P. mirabilis, 10 h cultivation at 37° C.
[9] = P. vulgaris, 10 h cultivation at 37° C.
[10] = S. marcescens, 10 h cultivation at 37° C.
[11] = E. coli BL21, 96-well plate, 37° C., 10 h
[12] = Pseudomonas aeruginosa, 96-well plate, 37° C., 10 h
[13] = Klebsiella pneumonia, 96-well plate, 37° C., 10 h
[14] = Enterobacter cloacae, 96-well plate, 37° C., 10 h
[15] = Aeromonas hydrophila, 96-well plate, 37° C., 10 h
[16] = Citrobacter diversus, 96-well plate, 37° C., 10 h
[17] = Moraxella catarrhalis, 96-well plate, 37° C., 10 h
[18] = Proteus mirabilis, 96-well plate, 37° C., 10 h
[19] = Proteus vulgaris, 96-well plate, 37° C., 10 h
[20] = Serratia marcescens, 96-well plate, 37° C., 10 h
[21] = 10 h cultivation at 37° C., two-fold serial dilution

PRT163 (EYNECLSAPCLNAATCRDLVNGYECVCLAEYKGTHCE; listed as Homo sapiens)
MIC (E. coli DH5α): 12.5 µg/mL | MIC (μg/mL) E. coli BL21 (E. coli BL21; [1]): 25 µg/mL | MIC (μg/mL) P. aeruginosa (Pseudomonas aeruginosa; [2]): 12.5 µg/mL | MIC (μg/mL) K. pneumonia (Klebsiella pneumonia; [3]): 25 µg/mL | MIC (μg/mL) E. cloacae (Enterobacter cloacae; [4]): 12.5 µg/mL | MIC (μg/mL) A. hydrophila (Aeromonas hydrophila; [5]): 25 µg/mL | MIC (μg/mL) C. diversus (Citrobacter diversus; [6]): 12.5 µg/mL | MIC (μg/mL) M. catarrhalis (Moraxella catarrhalis; [7]): 25 µg/mL | MIC (μg/mL) P. mirabilis (Proteus mirabilis; [8]): 50 µg/mL | MIC (μg/mL) P. vulgaris (Proteus vulgaris; [9]): 25 µg/mL | MIC (μg/mL) S. marcescens (Serratia marcescens; [10]): 12.5 µg/mL

PRT7 (TCLSSKEGTICSGNGVCSNELKCVCNRHWIGSDCN; listed as Homo sapiens)
MIC (E. coli DH5α): 12.5 µg/mL | MIC (μg/mL) E. coli BL21 (E. coli BL21; [11]): 25 µg/mL | MIC (μg/mL) P. aeruginosa (Pseudomonas aeruginosa; [12]): 25 µg/mL | MIC (μg/mL) K. pneumonia (Klebsiella pneumonia; [13]): 12.5 µg/mL | MIC (μg/mL) E. cloacae (Enterobacter cloacae; [14]): 12.5 µg/mL | MIC (μg/mL) A. hydrophila (Aeromonas hydrophila; [15]): 50 µg/mL | MIC (μg/mL) C. diversus (Citrobacter diversus; [16]): 12.5 µg/mL | MIC (μg/mL) M. catarrhalis (Moraxella catarrhalis; [17]): 25 µg/mL | MIC (μg/mL) P. mirabilis (Proteus mirabilis; [18]): 50 µg/mL | MIC (μg/mL) P. vulgaris (Proteus vulgaris; [19]): 50 µg/mL | MIC (μg/mL) S. marcescens (Serratia marcescens; [20]): 12.5 µg/mL

PRT648 (DIDECLNPSTCPDEQCVNSPGSYQCVPCTEGFRGWNGQCL; listed as Homo sapiens)
MIC (E. coli DH5α): 12.5 µg/mL | MIC E. coli BL21 (E. coli BL21; 96-well plate, 37° C., 10 h): 25 µg/mL | MIC P. aeruginosa (Pseudomonas aeruginosa; 96-well plate, 37° C., 10 h): 50 µg/mL | MIC K. pneumonia (Klebsiella pneumonia; 96-well plate, 37° C., 10 h): 25 µg/mL | MIC E. cloacae (Enterobacter cloacae; 96-well plate, 37° C., 10 h): 12.5 µg/mL | MIC A. hydrophila (Aeromonas hydrophila; 96-well plate, 37° C., 10 h): 50 µg/mL | MIC C. diversus (Citrobacter diversus; 96-well plate, 37° C., 10 h): 12.5 µg/mL | MIC M. catarrhalis (Moraxella catarrhalis; 96-well plate, 37° C., 10 h): 50 µg/mL | MIC P. mirabilis (Proteus mirabilis; 96-well plate, 37° C., 10 h): 12.5 µg/mL | MIC P. vulgaris (Proteus vulgaris; 96-well plate, 37° C., 10 h): 50 µg/mL | MIC S. marcescens (Serratia marcescens; 96-well plate, 37° C., 10 h): 12.5 µg/mL

PRT1315 (FGPDCQSVCSCVHGVCNHGPRGDGSCLCFAGYTGPHCD; listed as Homo sapiens)
MIC (E. coli DH5α): 25 µg/mL | MIC against E. coli BL21 (E. coli BL21; [11]): 12.5 µg/mL | MIC against P. aeruginosa (Pseudomonas aeruginosa; [12]): 12.5 µg/mL | MIC against K. pneumonia (Klebsiella pneumonia; [13]): 100 µg/mL | MIC against E. cloacae (Enterobacter cloacae; [14]): 25 µg/mL | MIC against A. hydrophila (Aeromonas hydrophila; [15]): 12.5 µg/mL | MIC against C. diversus (Citrobacter diversus; [16]): 12.5 µg/mL | MIC against M. catarrhalis (Moraxella catarrhalis; [17]): 50 µg/mL | MIC against P. mirabilis (Proteus mirabilis; [18]): 12.5 µg/mL | MIC against P. vulgaris (Proteus vulgaris; [19]): 50 µg/mL | MIC against S. marcescens (Serratia marcescens; [20]): 12.5 µg/mL

PRT1156 (IIGQCQPHVCFHGNCSNITSNSFICECDEQFSGPFCE; listed as Homo sapiens)
MIC (E. coli DH5α): 50 µg/mL | MIC E. coli BL21 (E. coli BL21; [21]): 25 µg/mL | MIC P. aeruginosa (Pseudomonas aeruginosa; [21]): 12.5 µg/mL | MIC K. pneumonia (Klebsiella pneumonia; [21]): 25 µg/mL | MIC E. cloacae (Enterobacter cloacae; [21]): 25 µg/mL | MIC A. hydrophila (Aeromonas hydrophila; [21]): 50 µg/mL | MIC C. diversus (Citrobacter diversus; [21]): 25 µg/mL | MIC M. catarrhalis (Moraxella catarrhalis; [21]): 12.5 µg/mL | MIC P. mirabilis (Proteus mirabilis; [21]): 50 µg/mL | MIC P. vulgaris (Proteus vulgaris; [21]): 12.5 µg/mL | MIC S. marcescens (Serratia marcescens; [21]): 50 µg/mL

PRT152 (LPCPGGTERPCGGYGQCEGEGTRGGSGHCDCQAGYGGEACG; listed as Homo sapiens)
MIC (E. coli DH5α): 12.5 µg/mL | MIC (μg/mL) E. coli BL21 (E. coli BL21; [1]): 12.5 µg/mL | MIC (μg/mL) P. aeruginosa (Pseudomonas aeruginosa; [2]): 12.5 µg/mL | MIC (μg/mL) K. pneumonia (Klebsiella pneumonia; [3]): 12.5 µg/mL | MIC (μg/mL) E. cloacae (Enterobacter cloacae; [4]): 12.5 µg/mL | MIC (μg/mL) A. hydrophila (Aeromonas hydrophila; [5]): 12.5 µg/mL | MIC (μg/mL) C. diversus (Citrobacter diversus; [6]): 25 µg/mL | MIC (μg/mL) M. catarrhalis (Moraxella catarrhalis; [7]): 12.5 µg/mL | MIC (μg/mL) P. mirabilis (Proteus mirabilis; [8]): 25 µg/mL | MIC (μg/mL) P. vulgaris (Proteus vulgaris; [9]): 12.5 µg/mL | MIC (μg/mL) S. marcescens (Serratia marcescens; [10]): 12.5 µg/mL

PRT1135 (NLDDCASRPCQRGARCRDRVHDFDCLCPSGYGGKTCE; listed as Homo sapiens)
MIC (E. coli DH5α): 25 µg/mL | MIC E. coli BL21 (E. coli BL21; [21]): 50 µg/mL | MIC P. aeruginosa (Pseudomonas aeruginosa; [21]): 100 µg/mL | MIC K. pneumonia (Klebsiella pneumonia; [21]): 50 µg/mL | MIC E. cloacae (Enterobacter cloacae; [21]): 25 µg/mL | MIC A. hydrophila (Aeromonas hydrophila; [21]): 25 µg/mL | MIC C. diversus (Citrobacter diversus; [21]): 12.5 µg/mL | MIC M. catarrhalis (Moraxella catarrhalis; [21]): 25 µg/mL | MIC P. mirabilis (Proteus mirabilis; [21]): 50 µg/mL | MIC P. vulgaris (Proteus vulgaris; [21]): 25 µg/mL | MIC S. marcescens (Serratia marcescens; [21]): 12.5 µg/mL
